The target of one experiment is T1, L858R/T790M/C797S EGFR (Homo sapiens, UniProt P00533, C797S/L858R/T790M).
T1 construct: expressed in transfected cells; host or cells: H1975 clone #25 (lentiviral over-expression, endogenous EGFR knocked out by sgRNA)
Put plainly: EGFR degradation HTRF assay in H1975-clone #25 (LTC) cells. The format is cell-based. The following applies: 16h treatment; for DC50: H1975 # 25-LTC (L858R/T790M/C797S), HTRF; for Dmax: NCI-H1975, H1975 # 25-LTC (L858R/T790M/C797S), maximum percentage of degradation. Summed up: (§1)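 Remaining EGFR protein was measured by HTRF (337 nm excitation, 665/620 nm emission) in lysates after overnight antibody incubation. Cells had been exposed for 16 h to an 8-point, 5-fold series starting at 10 uM, and DC50 values were fitted with a Hill equation.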

A further experiment relates to Del19/T790M/C797S EGFR. Put plainly: EGFR degradation HTRF assay in H1975-clone #28 (DTC) cells. The format is cell-based. The following applies: H1975 # 28 DTC (Del19/T790M/C797S), 16h treatment; for DC50: HTRF; for Dmax (%): maximum percentage of degradation. In outline: as §1

The structures appear in SMILES notation.

T1 sequence (P00533 25-1210 T790M/C797S/L858R): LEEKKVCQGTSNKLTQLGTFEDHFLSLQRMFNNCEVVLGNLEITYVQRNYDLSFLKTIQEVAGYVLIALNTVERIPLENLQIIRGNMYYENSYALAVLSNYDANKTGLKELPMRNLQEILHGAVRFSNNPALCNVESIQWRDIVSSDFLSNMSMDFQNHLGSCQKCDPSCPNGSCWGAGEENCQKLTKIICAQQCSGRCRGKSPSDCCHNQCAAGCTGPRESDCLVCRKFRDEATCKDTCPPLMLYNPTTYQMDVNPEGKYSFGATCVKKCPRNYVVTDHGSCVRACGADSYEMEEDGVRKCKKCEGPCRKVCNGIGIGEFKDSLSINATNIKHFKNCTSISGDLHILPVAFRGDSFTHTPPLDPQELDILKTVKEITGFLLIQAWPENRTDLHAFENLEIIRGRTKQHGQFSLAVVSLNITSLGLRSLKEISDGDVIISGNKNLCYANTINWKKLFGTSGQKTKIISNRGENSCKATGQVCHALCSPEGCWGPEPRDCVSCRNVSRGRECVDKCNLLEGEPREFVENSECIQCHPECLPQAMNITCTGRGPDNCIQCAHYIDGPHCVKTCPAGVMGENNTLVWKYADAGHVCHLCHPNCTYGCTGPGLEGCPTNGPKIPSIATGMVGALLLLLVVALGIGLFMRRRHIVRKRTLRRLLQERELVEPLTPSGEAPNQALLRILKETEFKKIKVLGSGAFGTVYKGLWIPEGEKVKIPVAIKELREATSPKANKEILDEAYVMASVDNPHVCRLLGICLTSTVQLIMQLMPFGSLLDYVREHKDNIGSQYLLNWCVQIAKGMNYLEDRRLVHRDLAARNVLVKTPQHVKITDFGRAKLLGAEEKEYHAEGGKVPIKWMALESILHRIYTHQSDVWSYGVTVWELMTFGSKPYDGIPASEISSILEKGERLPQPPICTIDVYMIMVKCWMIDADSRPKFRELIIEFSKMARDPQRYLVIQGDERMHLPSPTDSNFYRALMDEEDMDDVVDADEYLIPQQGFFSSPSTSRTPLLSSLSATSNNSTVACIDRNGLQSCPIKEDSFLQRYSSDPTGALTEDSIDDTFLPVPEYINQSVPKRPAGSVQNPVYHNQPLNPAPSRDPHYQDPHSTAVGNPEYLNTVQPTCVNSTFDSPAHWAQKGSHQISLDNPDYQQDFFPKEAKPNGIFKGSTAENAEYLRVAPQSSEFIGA

`Cc1cc2cc(n1)-c1cnn(C)c1OCCC[C@@H](C)CN1/C(=N/C2=O)Nc2ccc(CN3CC4CCC3CN4C(=O)[C@@H]3CCN(c4cc(F)c([C@H]5CCC(=O)NC5=O)c(F)c4)C3)cc21` (stereo partly drawn) [Example 164, (3R)-3-(2,6-difluoro-4-((3R)-3-(5-(((R,E)-1^1,2^6,7-trimethyl-3-oxo-5^2,5^3-dihydro-1^1H,5^1H-11-oxa-4-aza-5(2,1)-benzo[d]imidazola-2(2,4)-pyridina-1(4,5)-pyrazolacycloundecaphane-5^6-yl)methyl)-2,5-diazabicyclo[2.2.2]octane-2-carbonyl)pyrrolidin-1-yl)phenyl)piperidine-2,6-dione]: on L858R/T790M/C797S EGFR, the DC50 amounted to 1.46 nM and the Dmax stood at 83.1%. Also, in the experiment on Del19/T790M/C797S EGFR, it took 1.95 nM to reach half-maximal degradation (DC50) and the “Dmax (%)” value worked out at 73.21%.
On the same counts, the results for `Cc1cc2cc(n1)-c1cnn(C)c1OCCC[C@@H](C)CN1/C(=N/C2=O)Nc2ccc(C(=O)N(C)C3CC4CCCC(C3)N4CCc3cc(F)c([C@H]4CCC(=O)NC4=O)c(F)c3)cc21` (stereo partly drawn) [Example 266, (7R,E)-N-(9-(4-((R)-2,6-dioxopiperidin-3-yl)-3,5-difluorophenethyl)-9-azabicyclo[3.3.1]nonan-3-yl) -N,1^1,2^6,7-tetramethyl-3-oxo-5^2,5^3-dihydro-1^1H,5^1H-11-oxa-4-aza-5(2,1)-benzo[d]imidazola-2(2,4)-pyridina-1(4,5)-pyrazolacycloundecaphane-5^6-carboxamide] are 1.51 nM, 81.4%, 0.65 nM and 75.93%.
Regarding `Cc1cc2cc(n1)-c1cnn(C)c1OCCC[C@@H](C)CN1/C(=N/C2=O)Nc2ccc(C(=O)N3CCN(C(=O)[C@@H]4CCN(c5cc(F)c([C@H]6CCC(=O)NC6=O)c(F)c5)C4)CC3)cc21` [Example 96, (R)-3-(2,6-difluoro-4-((R)-3-(4-((R,E)-1^1,2^6,7-trimethyl-3-oxo-5^2,5^3-dihydro-1^1H,5^1H-11-oxa-4-aza-5(2,1)-benzo[d]imidazola-2(2,4)-pyridina-1(4,5)-pyrazolacycloundecaphane-5^6-carbonyl)piperazine-1-carbonyl)pyrrolidin-1-yl)phenyl)piperidine-2,6-dione], on L858R/T790M/C797S EGFR, the DC50 was found to be 0.6 nM and the Dmax was 87.8%. Moreover, in the experiment on Del19/T790M/C797S EGFR, the DC50 is 0.4 nM and the “Dmax (%)” value is reported as 84.3%.
At L858R/T790M/C797S EGFR, `Cc1cc2cc(n1)-c1cnn(C)c1OCCC[C@@H](C)CN1/C(=N/C2=O)Nc2ccc(C(=O)N(C)C3CCN(CC4CN(c5cc(F)c([C@H]6CCC(=O)NC6=O)c(F)c5)C4)CC3)cc21` [Example 286, (R,E)-N-(1-((1-(4-((R)-2,6-dioxopiperidin-3-yl)-3,5-difluorophenyl)azetidin-3-yl)methyl)piperidin-4-yl)-N,1^1,2^6,7-tetramethyl-3-oxo-5^2,5^3-dihydro-1^1H,5^1H-11-oxa-4-aza-5(2,1)-benzo[d]imidazola-2(2,4)-pyridina-1(4,5)-pyrazolacycloundecaphane-5^6-carboxamide] had a DC50 of 0.45 nM and a Dmax of 91.2%. In the experiment with Del19/T790M/C797S EGFR, the DC50 was found to be 0.652 nM and the “Dmax (%)” value amounted to 72.5%.
On L858R/T790M/C797S EGFR, `COC[C@@H]1CN(c2ccc3c(c2)N2C[C@H](C)CCCOc4c(cnn4C)-c4cc(cc(C)n4)C(=O)/N=C/2N3)CCN1C1CCN(c2cc(F)c([C@H]3CCC(=O)NC3=O)c(F)c2)CC1` [Example 397, (R)-3-(2,6-difluoro-4-(4-((S)-2-(methoxymethyl)-4-((R,E)-1^1,2^6,7-trimethyl-3-oxo-5^2,5^3-dihydro-1^1H,5^1H-1i-oxa-4-aza-5(2,1)-benzo[d]imidazola-2(2,4)-pyridina-1(4,5)-pyrazolacycloundecaphane-5-yl)piperazin-1-yl)piperidin-1-yl)phenyl)piperidine-2,6-dione] registered a DC50 of 2.01 nM and a Dmax of 88.3%. Further, in the experiment on Del19/T790M/C797S EGFR, the DC50 worked out at 2.13 nM and the “Dmax (%)” value was found to be 76.68%.

The record behind these values is patent publication US20240342292A1, “Compounds for the Degradation of EGFR Kinase” (BeiGene Switzerland GmbH, priority 2021, published 2024).
